This is an account of results in patent publication US4602109A, “Novel pesticidal phenoxyphenyl and phenoxypyridyl benzoyl ureas and process for preparation” (Union Carbide Corporation, priority 1984, dated 1986).

≈ marks a conversion by molar mass, not a printed value. Read-outs that look alike come from different tables or passages of the source.

What all share (format): in vivo
Assay [1] concerns southern armyworm (Spodoptera eridania). Put plainly: Southern Armyworm Leaf Spray Bait Test. The note with it: 120 h, read-out: Percent Control after 5 days. The protocol:
Suspensions of the test compounds were prepared by dissolving one gram of compound in 50 milliliters of acetone in which had been dissolved 0.1 gram (10 percent of the weight of compound) of an alkylphenoxy polyethoxyethanol surfactant, as an emulsifying or dispersing agent. The resulting solution was mixed into 150 milliliters of water to give roughly 200 milliliters of a suspension containing the compound in finely divided form. The thus-prepared stock suspension contained 0.5 percent by weight of compound.
Certain of the test compounds were also prepared by dissolving 375 mg of compound in 7.5 ml of dimethylformamide. Fifteen ml of acetone containing 37.5 mg (10 percent of the weight of test compound) of an alkylphenoxy polyethoxyethanol surfactant, as a wetting/emulsifying/dispersing agent was added to the dimethylformamide solution. Fifty-two and a half ml of water was mixed into the dimethylformamide-acetone mixture to give roughly 75 ml of a suspension containing the compound in solution or in finely divided form. The thus prepared stock suspension contained 0.5 percent by weight of compound. The test concentrations in parts per million by weight employed in the tests described hereinbelow were obtained by appropriate dilutions of the stock suspension with water. The test procedures were as follows:
Larvae of the southern armyworm (Spodoptera eridania, (Cram.), reared on Tendergreen bean plants at a temperature of 80°±5° F. and a relative humidity of 50±5 percent, constituted the test insects.
The test compounds were formulated by diluting the stock suspension with water to give a suspension containing 500 parts of test compound per million parts of final formulation. Potted Tendergreen bean plants of standard height and age were placed on a revolving turntable and sprayed with 100-110 milliliters of test compound formulation by use of a DeVilbiss spray gun set at 40 psig air pressure. This application, which lasted 25 seconds, was sufficient to wet plants to run-off. As a control, 100-110 milliliters of a water-acetone-emulsifier solution containing no test compound were also sprayed on infested plants. When dry, the paired leaves were separated and each one was placed in a 9 centimeter Petri dish lined with moistened filter paper. Five randomly selected larvae were introduced into each dish and the dishes were closed. The closed dishes were labeled and held at 80°-85° F. for five days. Although the larvae could easily consume the whole leaf within twenty-four hours, no more food was added. Larvae which were unable to move the length of the body, even upon stimulation by prodding, were considered dead. Percent mortality was recorded for various concentration levels.

The test system of another assay is H. Zea. The assay is described as follows: Comparison against Heliothis spp: H. Zea.
The next assay has as its system H. Virecens. The assay is described as follows: Comparison against Heliothis spp: H. Virecens. The note with it: read-out: LD50, H. Virecens.
Where [2] appears, read: Helicoverpa zea; read-out: LD50, H. Zea.

In the case of `O=C(NC(=O)c1c(F)cccc1F)Nc1ccc(Cl)cc1` [1-(4-chlorophenyl)-3-(2,6-difluorobenzoyl)urea, reference compound], the mortality at 5 ppm in assay [1] came to 40%. Besides, the mortality at 10 ppm in assay [1] was 100%. Besides, the LC50 is 500 µg/mL (≈ 1610 µM) in the assay on H. Zea (Helicoverpa zea, read-out: LD50, H. Zea) and 31 µg/mL (≈ 99.8 µM) with H. Virecens.
Regarding `O=C(NC(=O)c1c(F)cccc1F)Nc1cc(Cl)c(Oc2ccc(S(=O)(=O)c3ccc(Cl)cc3)cc2)c(Cl)c1` [Example 2, 1-(2,6-Difluorobenzoyl)-3-(3,5-dichloro-4-[4-(4-chlorophenylsulfonyl)phenoxy]phenyl)urea], in assay [1], the mortality at 3 ppm is 100%, the mortality at 6 ppm stood at 90% and the mortality at 12 ppm came to 100%. Besides, the LC50 in the assay with H. Zea (setting [2]) is 12.5 µg/mL (≈ 20.4 µM). In the assay with H. Virecens, the LC50 worked out at 8.5 µg/mL (≈ 13.9 µM).
In the case of `O=C(NC(=O)c1c(F)cccc1Cl)Nc1ccc(Oc2ccc(S(=O)(=O)c3ccc(Cl)cc3)cc2)cc1` [Example 9, 1-(2-chloro-6-fluorobenzoyl)-3-(4-[4-(4-chloro-phenylsulfonyl)phenoxy]-phenyl)urea], in assay [1], the mortality at 1.5 ppm turned out to be 60%, the mortality at 6 ppm amounted to 100% and the mortality at 20 ppm stood at 100%.
With `O=C(NC(=O)c1c(F)cccc1F)Nc1ccc(Oc2ccc(S(=O)(=O)c3ccc(Cl)cc3)cc2)c(Cl)c1` [Example 3, 1-(2,6-difluorobenzoyl)-3-(3-chloro-4-[4-((4-chloro-phenylsulfonyl))-phenoxy]phenyl)urea], in assay [1], the mortality at 3 ppm was 56%, the mortality at 6 ppm was 75% and the mortality at 12 ppm is 100%. Besides, the LC50 with H. Zea (setting [2]) is 31 µg/mL (≈ 53.7 µM). Moreover, the LC50 in the assay with H. Virecens stood at 31 µg/mL (≈ 53.7 µM).
